Results taken from patent publication US20120004244A1, “Bis Aromatic Compounds for Use as LTC4 Synthase Inhibitors” (BIOLIPOX AB, priority 2009, published 2012).

target: T1, Recombinant human LTC4 synthase (Homo sapiens, UniProt Q16873); experiment: LTC4 synthase in vitro assay (LTA4 to LTC4, HTRF detection); assay type: biochemical; details: not given
T1 construct: made in house; host or cells: Pichia pastoris ('Piccia pastoralis' [sic])
T1 sequence (Q16873 1-150): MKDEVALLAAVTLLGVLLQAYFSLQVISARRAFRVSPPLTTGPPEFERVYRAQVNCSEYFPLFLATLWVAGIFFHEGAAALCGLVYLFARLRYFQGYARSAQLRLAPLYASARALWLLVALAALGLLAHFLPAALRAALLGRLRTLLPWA
Method in brief: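 Purified recombinant human LTC4 synthase expressed in Pichia (0.5 μg/mL total protein) was preincubated with inhibitor at 10 μM final for 10 min at room temperature in PBS pH 7.4 with 5 mM GSH. LTA4 was then added at 2.5 μM final, and after 5 min at room temperature LTC4 was detected by HTRF.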

| SMILES | IC50 [nM] |
| --- | --- |
| CN(c1ccc(Cl)cc1)c1ccc(C(=O)c2ccc(C(=O)c3ccc([N+](=O)[O-])cc3)c(C(=O)O)c2)nc1 [5:12] | 202 |
| CN(c1ccc(Cl)cc1)c1ccc(C(=O)c2ccc(C(=O)C(C)(C)C)c(C(=O)O)c2)nc1 [5:13, 5-{5-[(4-Chlorophenyl)(methyl)amino]picolinoyl}-2-(2,2-dimethylpropionyl)-benzoic acid] | 491 |
| CCOc1ccc(C(=O)c2ccc(C(=O)c3ccc(N(C)c4ccc(Cl)cc4)cn3)cc2C(=O)O)cc1OCC [5:14, 5-{5-[(4-Chlorophenyl)(methyl)amino]picolinoyl}-2-(3,4-diethoxybenzoyl)-benzoic acid] | 77 |
| CN(c1ccc(Cl)cc1)c1ccc(C(=O)c2ccc(C(=O)c3ccc(F)cc3)c(C(=O)O)c2)nc1 [5:15, 5-{5-[(4-Chlorophenyl)(methyl)amino]picolinoyl}-2-(4-fluorobenzoyl)benzoic acid] | 126 |
| CN(c1ccc(Cl)cc1)c1ccc(C(=O)c2ccc(C(=O)Cc3ccccc3)c(C(=O)O)c2)nc1 [5:16, 5-{5-[(4-Chlorophenyl)(methyl)amino]picolinoyl}-2-phenylacetylbenzoic acid] | 257 |
| CCCCCCC(=O)c1ccc(C(=O)c2ccc(N(C)c3ccc(Cl)cc3)cn2)cc1C(=O)O [5:17, 5-{5-[(4-Chlorophenyl)(methyl)amino]picolinoyl}-2-heptanoylbenzoic acid] | 90 |
| CN(c1ccc(Cl)cc1)c1ccc(C(=O)c2ccc(C(=O)C3CCCCC3)c(C(=O)O)c2)nc1 [5:18, 5-{5-[(4-Chlorophenyl)(methyl)amino]picolinoyl}-2-cyclohexylcarbonylbenzoic acid] | 246 |
| CN(c1ccc(Cl)cc1)c1ccc(C(=O)c2ccc(C(=O)C3(c4ccccc4)CC3)c(C(=O)O)c2)nc1 [5:19] | 32 |
| CN(c1ccc(Cl)cc1)c1ccc(C(=O)c2ccc(C(=O)c3cccs3)c(C(=O)O)c2)nc1 [5:20, 5-{5-[(4-Chlorophenyl)(methyl)amino]picolinoyl}-2-(2-thienylcarbonyl)benzoic acid] | 104 |
| Cc1ccc(N(C)c2ccc(C(=O)c3ccc(C(=O)c4ccccc4)c(C(=O)O)c3)nc2)cc1 [5:21] | 250 |
| Cc1cc(Cl)ccc1N(C)c1ccc(C(=O)c2ccc(C(=O)c3ccccc3)c(C(=O)O)c2)nc1 [5:22, 2-Benzoyl-5-{5-[(4-chloro-2-methylphenyl)(methyl)amino]picolinoyl}benzoic acid] | 442 |
| CCc1ccc(N(C)c2ccc(C(=O)c3ccc(C(=O)c4ccccc4)c(C(=O)O)c3)nc2)cc1 [5:23] | 184 |
| CN(c1ccc(Cl)cc1)c1ccc(C(=O)c2ccc(C(=O)c3ccc4c(c3)OCO4)c(C(=O)O)c2)nc1 [5:24, 5-{5-[(4-Chlorophenyl)(methyl)amino]picolinoyl}-2-(3,4-methylenedioxy-benzoyl)benzoic acid] | 77 |
| CN(c1ccc(Cl)cc1)c1ccc(C(=O)c2ccc(C(=O)C3CCCO3)c(C(=O)O)c2)nc1 (stereo not drawn) [5:25, 5-{5-[(4-Chlorophenyl)(methyl)amino]picolinoyl}-2-tetrahydrofuran-2-carbonylbenzoic acid] | 860 |
| CN(c1ccc(Cl)cc1)c1ccc(C(=O)c2ccc(C(=O)c3ccc4c(c3)OCCO4)c(C(=O)O)c2)nc1 [5:26] | 27 |
| CN(c1ccc(Cl)cc1)c1ccc(C(=O)c2ccc(C(=O)c3cccc(C(F)(F)F)c3)c(C(=O)O)c2)nc1 [5:27] | 54 |
| CN(c1ccc(Cl)cc1)c1ccc(C(=O)c2ccc(C(=O)c3cccc(OC(F)(F)F)c3)c(C(=O)O)c2)nc1 [5:28] | 60 |
| CN(c1ccc(Cl)cc1)c1ccc(C(=O)c2ccc(C(=O)c3ccccc3C(F)(F)F)c(C(=O)O)c2)nc1 [5:29] | 245 |
| CN(c1ccc(Cl)cc1)c1ccc(C(=O)c2ccc(Oc3ccccc3)c(C(=O)O)c2)cn1 [6:1] | 667 |
| CN(c1ccc(Cl)cc1)c1ccc(C(=O)c2ccc(Oc3ccc(F)c(F)c3)c(C(=O)O)c2)cn1 [6:2] | 630 |
| O=C(c1ccc(Oc2ccccc2)c(C(=O)O)c1)c1ccc(-c2cccc(Cl)c2)cn1 [7:1, 5-[5-(3-Chlorophenyl)picolinoyl]-2-phenoxybenzoic acid] | 1110 |
| O=C(c1ccc(Oc2ccccc2)c(C(=O)O)c1)c1ccc(-c2ccc(Cl)cc2)cn1 [7:2, 5-[5-(4-Chlorophenyl)picolinoyl]-2-phenoxybenzoic acid] | 752 |

| SMILES | IC50 [nM] |
| --- | --- |
| O=C(c1ccc(Oc2ccccc2)c(C(=O)O)c1)c1ccc(-c2cccc(C(F)(F)F)c2)cn1 [7:3, 2-Phenoxy-5-[5-(3-trifluoromethylphenyl)picolinoyl]benzoic acid] | 700 |
| O=C(c1ccc(N(CC2CC2)c2ccc(Cl)cc2)cc1)c1cc(C(=O)O)c(Oc2ccccc2)cn1 [8:1, 2-{4-[(4-Chlorophenyl)(cyclopropylmethyl)amino]benzoyl}-5-phenoxyisonicotinic acid] | 82 |
| CN(c1ccc(Cl)cc1)c1ccc(C(=O)c2cc(C(=O)O)c(Oc3ccccc3)cn2)cc1 [8:2] | 302 |
| CN(c1ccc(Cl)cc1)c1ccc(C(=O)c2ccc(Oc3ccccc3)c(C(=O)O)n2)cc1 [9:1, 6-{4-[(4-Chlorophenyl)(methyl)amino]benzoyl}-3-phenoxypicolinic acid] | 742 |
| CN(c1ccc(Cl)cc1)c1ccc(C(=O)c2ccc(Oc3ccc(F)c(F)c3)c(C(=O)O)n2)cc1 [9:2] | 834 |
| CN(c1ccc(Cl)cc1)c1cnc(C(=O)c2ccc(Oc3ccc(F)cc3)c(C(=O)O)c2)nc1 [10:1, 5-{5-[(4-Chlorophenyl)(methyl)amino]pyrimidine-2-carbonyl}-2-(4-fluorophenoxy)-benzoic acid] | 154 |
| CN(c1ccc(Cl)cc1)c1cnc(C(=O)c2ccc(Oc3ccccc3)c(C(=O)O)c2)nc1 [10:3, 5-{5-[(4-Chlorophenyl)(methyl)amino]pyrimidine-2-carbonyl}-2-phenoxybenzoic acid] | 300 |
| O=C(c1ccc(Oc2ccccc2)c(C(=O)O)c1)c1ncc(N(CC2CC2)c2ccc(Cl)cc2)cn1 [10:4, 5-{5-[(4-Chlorophenyl)(cyclopropylmethyl)amino]pyrimidine-2-carbonyl}-2-phenoxybenzoic acid] | 132 |
| O=C(c1ccc(Oc2ccccc2)c(C(=O)O)c1)c1ncc(N(Cc2ccccc2)c2ccc(Cl)cc2)cn1 [10:5, 5-{5-[(Benzyl)(4-chlorophenyl)amino]pyrimidine-2-carbonyl}-2-phenoxybenzoic acid] | 119 |
| O=C(c1ccc(Oc2ccccc2)c(C(=O)O)c1)c1ccc(OCc2cccc(Cl)c2)cn1 [11:1, 5-[5-(3-Chlorobenzyloxy)picolinoyl]-2-phenoxybenzoic acid] | 143 |
| COc1ccc(Oc2ccc(C(=O)c3ccc(OCc4cccc(Cl)c4)cn3)cc2C(=O)O)cc1 [11:2, 5-[5-(3-Chlorobenzyloxy)picolinoyl]-2-(4-methoxyphenoxy)benzoic acid] | 345 |
| O=C(c1ccc(Oc2ccccc2)c(C(=O)O)c1)c1ccc(OCc2cccc(C(F)(F)F)c2)cn1 [11:5, 2-Phenoxy-5-[5-(3-trifluoromethylbenzyloxy)picolinoyl]benzoic acid] | 181 |
| O=C(c1ccc(Oc2ccccc2)c(C(=O)O)c1)c1ccc(OCc2ccc(C(F)(F)F)cc2)cn1 [11:6, 2-Phenoxy-5-[5-(4-trifluoromethylbenzyloxy)picolinoyl]benzoic acid] | 351 |
| O=C(c1ccc(Oc2ccccc2)c(C(=O)O)c1)c1ccc(OCc2ccccc2C(F)(F)F)cn1 [11:7, 2-Phenoxy-5-[5-(2-trifluoromethylbenzyloxy)picolinoyl]benzoic acid] | 931 |
| O=C(c1ccc(Oc2ccccc2)c(C(=O)O)c1)c1ccc(OCc2cccc(Br)c2)cn1 [11:8, 5-[5-(3-Bromobenzyloxy)picolinoyl]-2-phenoxybenzoic acid] | 126 |
| O=C(c1ccc(Oc2ccccc2)c(C(=O)O)c1)c1ccc(OCc2ccc(Cl)c(Cl)c2)cn1 [11:9, 5-[5-(3,4-Dichlorobenzyloxy)picolinoyl]-2-phenoxybenzoic acid] | 69 |
| COc1ccc(COc2ccc(C(=O)c3ccc(N(C)c4ccc(Cl)cc4)cn3)cc2C(=O)O)cc1 [12:1, 5-{5-[(4-Chlorophenyl)(methyl)amino]picolinoyl}-2-(4-methoxybenzyloxy)benzoic acid] | 380 |
| CN(c1ccc(Cl)cc1)c1ccc(C(=O)c2ccc(OCc3ccccc3Cl)c(C(=O)O)c2)nc1 [12:2, 2-(2-Chlorobenzyloxy)-5-{5-[(4-chlorophenyl)(methyl)amino]picolinoyl}benzoic acid] | 184 |
| CN(c1ccc(Cl)cc1)c1ccc(C(=O)c2ccc(OCc3ccc(Cl)cc3)c(C(=O)O)c2)nc1 [12:3, 2-(4-Chlorobenzyloxy)-5-{5-[(4-chlorophenyl)(methyl)amino]picolinoyl}benzoic acid] | 364 |
| CN(c1ccc(Cl)cc1)c1ccc(C(=O)c2ccc(OCc3ccc(F)c(F)c3)c(C(=O)O)c2)nc1 [12:4, 5-{5-[(4-Chlorophenyl)(methyl)amino]picolinoyl}-2-(3,4-difluorobenzyloxy)-benzoic acid] | 150 |
| CN(c1ccc(Cl)cc1)c1ccc(C(=O)c2ccc(OCc3ccc4c(c3)OCO4)c(C(=O)O)c2)nc1 [12:5, 5-{5-[(4-Chlorophenyl)(methyl)amino]picolinoyl}2-(3,4-methylenedioxy-benzyloxy)benzoic acid] | 166 |
| COc1cccc(COc2ccc(C(=O)c3ccc(N(C)c4ccc(Cl)cc4)cn3)cc2C(=O)O)c1 [12:6, 5-{5-[(4-Chlorophenyl)(methyl)amino]picolinoyl}-2-(3-methoxybenzyloxy)-benzoic acid] | 219 |

same assay, conditions: 5 min; total concentration of title compound in the assay 10 μM

| SMILES | inhibition at 10 µM [%] |
| --- | --- |
| CN(c1ccc(Cl)cc1)c1ccc(C(=O)c2ccc(Oc3ccccc3)c(C(=O)O)c2)cn1 [6:1] | 94 |
| CN(c1ccc(Cl)cc1)c1ccc(C(=O)c2ccc(Oc3ccc(F)c(F)c3)c(C(=O)O)c2)cn1 [6:2] | 96 |
| O=C(c1ccc(N(CC2CC2)c2ccc(Cl)cc2)cc1)c1cc(C(=O)O)c(Oc2ccccc2)cn1 [8:1, 2-{4-[(4-Chlorophenyl)(cyclopropylmethyl)amino]benzoyl}-5-phenoxyisonicotinic acid] | 99 |
| CN(c1ccc(Cl)cc1)c1ccc(C(=O)c2cc(C(=O)O)c(Oc3ccccc3)cn2)cc1 [8:2] | 99 |
| CN(c1ccc(Cl)cc1)c1ccc(C(=O)c2ccc(Oc3ccccc3)c(C(=O)O)n2)cc1 [9:1, 6-{4-[(4-Chlorophenyl)(methyl)amino]benzoyl}-3-phenoxypicolinic acid] | 94 |
| CN(c1ccc(Cl)cc1)c1ccc(C(=O)c2ccc(Oc3ccc(F)c(F)c3)c(C(=O)O)n2)cc1 [9:2] | 94 |
| CN(c1ccc(Cl)cc1)c1cnc(C(=O)c2ccc(Oc3ccc(F)cc3)c(C(=O)O)c2)nc1 [10:1, 5-{5-[(4-Chlorophenyl)(methyl)amino]pyrimidine-2-carbonyl}-2-(4-fluorophenoxy)-benzoic acid] | 97 |
